This note sets out measurements from patent publication US12471596B2 (priority 2019, dated 2025).

Bounds are passed on as bounds.

The test system of test [1] is Phytophthora infestans. In words: microbe, parasite or virus in culture. Type of test: cell-based. Particulars: in Secale cereale, 168 h, read-out: control compared to the untreated check.
In test [2] the test system is Phytophthora infestans. In words: whole plant or invertebrate. Type of test: in vivo, Phytophthora infestans on tomato plants. The note with it: in Solanum lycopersicum, 24 h, read-out: control compared to the untreated check.

Take `O=C(COc1nccnc1C(F)(F)F)N1CCC(c2nc(C3=NOC(c4c(Cl)cccc4C(F)(F)F)C3)cs2)CC1` (centres unmarked) [Compound 4, 1-(4-(4-(5-(2-chloro-6-(trifluoromethyl)phenyl)-4,5-dihydroisoxazol-3-yl)thiazol-2-yl)piperidin-1-yl)-2-((3-(trifluoromethyl)pyrazin-2-yl)oxy)ethan-1-one]: in the test on Phytophthora infestans [1], the inhibition of growth at 30 ppm is no less than 70%. Besides, the pest or weed control at 50 ppm with Phytophthora infestans [2] is no less than 70%. In the case of `O=C(COc1nccnc1C(F)(F)F)N1CCC(c2nc(C3=NOC(c4c(F)cccc4F)C3)cs2)CC1` (centres unmarked) [Compound 5, 1-(4-(4-(5-(2,6-difluorophenyl)-4,5-dihydroisoxazol-3-yl)thiazol-2-yl)piperidin-1-yl)-2-((3-(trifluoromethyl)pyrazin-2-yl)oxy)ethan-1-one], the inhibition of growth at 30 ppm with Phytophthora infestans [1] was no less than 70%. Moreover, the pest or weed control at 50 ppm in the test with Phytophthora infestans [2] is no less than 70%. On to `CS(=O)(=O)Oc1cccc(Cl)c1C1CC(c2csc(C3CCN(C(=O)COc4nccnc4C(F)(F)F)CC3)n2)=NO1` (centres unmarked) [Compound 6, 3-chloro-2-(3-(2-(1-(2-((3-(trifluoromethyl)pyrazin-2-yl)oxy)acetyl)piperidin-4-yl)thiazol-4-yl)-4,5-dihydroisoxazol-5-yl)phenyl methanesulfonate], for which the inhibition of growth at 30 ppm in the test on Phytophthora infestans [1] was no less than 70%. The pest or weed control at 50 ppm with Phytophthora infestans [2] is no less than 70%.

`CS(=O)(=O)Oc1cccc(Cl)c1C1CC(c2csc(C3CCN(C(=O)COc4cc(C(F)(F)F)ncn4)CC3)n2)=NO1` (centres unmarked) [Compound 7, 3-chloro-2-(3-(2-(1-(2-((6-(trifluoromethyl)pyrimidin-4-yl)oxy)acetyl)piperidin-4-yl)thiazol-4-yl)-4,5-dihydroisoxazol-5-yl)phenyl methanesulfonate]: the inhibition of growth at 30 ppm in the test on Phytophthora infestans [1] was no less than 70%. Moreover, the pest or weed control at 50 ppm in the test with Phytophthora infestans [2] was no less than 70%. On to `O=C(COc1nccnc1C(F)(F)F)N1CCC(c2csc(C3=NOC(c4c(Cl)cc(Cl)cc4Cl)C3)n2)CC1` (centres unmarked) [Compound 8, 1-(4-(2-(5-(2,4,6-trichlorophenyl)-4,5-dihydroisoxazol-3-yl)thiazol-4-yl)piperidin-1-yl)-2-((3-(trifluoromethyl)pyrazin-2-yl)oxy)ethan-1-one], for which the inhibition of growth at 30 ppm in the test on Phytophthora infestans [1] was no less than 70%. In addition, the pest or weed control at 50 ppm in the test on Phytophthora infestans [2] is no less than 70%. For `O=C(COc1cc(C(F)(F)F)ncn1)N1CCC(c2nc(C3=NOC(c4c(F)cccc4Cl)C3)cs2)CC1` (centres unmarked) [Compound 9, 1-(4-(4-(5-(2-chloro-6-fluorophenyl)-4,5-dihydroisoxazol-3-yl)thiazol-2-yl)piperidin-1-yl)-2-((6-(trifluoromethyl)pyrimidin-4-yl)oxy)ethan-1-one], the inhibition of growth at 30 ppm in the test on Phytophthora infestans [1] is no less than 70%. In addition, the pest or weed control at 50 ppm in the test on Phytophthora infestans [2] is no less than 70%. `O=C(COc1nccnc1C(F)(F)F)N1CCC(c2csc(C3=NOC(c4c(Cl)cccc4Cl)C3)n2)CC1` (centres unmarked) [Compound 13, 1-(4-(2-(5-(2,6-dichlorophenyl)-4,5-dihydroisoxazol-3-yl)thiazol-4-yl)piperidin-1-yl)-2-((3-(trifluoromethyl)pyrazin-2-yl)oxy)ethan-1-one]: the inhibition of growth at 30 ppm with Phytophthora infestans [1] was no less than 70%. Besides, the pest or weed control at 50 ppm with Phytophthora infestans [2] was no less than 70%.

Regarding `O=C(COc1cc(C(F)(F)F)ncn1)N1CCC(c2nc(C3=NOC(c4c(Cl)cccc4Cl)C3)cs2)CC1` (centres unmarked) [Compound 14, 1-(4-(4-(5-(2,6-dichlorophenyl)-4,5-dihydroisoxazol-3-yl)thiazol-2-yl)piperidin-1-yl)-2-((6-(trifluoromethyl)pyrimidin-4-yl)oxy)ethan-1-one], the inhibition of growth at 30 ppm in the test on Phytophthora infestans [1] was no less than 70%. Besides, the pest or weed control at 50 ppm in the test with Phytophthora infestans [2] was no less than 70%. On to `O=C(COc1ccnc(C(F)(F)F)n1)N1CCC(c2nc(C3=NOC(c4c(F)cccc4Br)C3)cs2)CC1` (centres unmarked) [Compound 15, 1-(4-(4-(5-(2-bromo-6-fluorophenyl)-4,5-dihydroisoxazol-3-yl)thiazol-2-yl)piperidin-1-yl)-2-((2-(trifluoromethyl)pyrimidin-4-yl)oxy)ethan-1-one], for which, in the test with Phytophthora infestans [1], the inhibition of growth at 30 ppm was no less than 70%. Also, the pest or weed control at 50 ppm with Phytophthora infestans [2] is no less than 70%. On to `O=C(COc1ccnc(C(F)(F)F)n1)N1CCC(c2nc(C3=NOC(c4c(Cl)cccc4Cl)C3)cs2)CC1` (centres unmarked) [Compound 16, 1-(4-(4-(5-(2,6-dichlorophenyl)-4,5-dihydroisoxazol-3-yl)thiazol-2-yl)piperidin-1-yl)-2-((2-(trifluoromethyl)pyrimidin-4-yl)oxy)ethan-1-one], for which the inhibition of growth at 30 ppm with Phytophthora infestans [1] is no less than 70%. For the same molecule, in the test on Phytophthora infestans [2], the pest or weed control at 50 ppm was no less than 70%. In the case of `O=C(COc1ccnc(C(F)(F)F)n1)N1CCC(c2nc(C3=NOC(c4c(F)cccc4F)C3)cs2)CC1` (centres unmarked) [Compound 17, 1-(4-(4-(5-(2,6-difluorophenyl)-4,5-dihydroisoxazol-3-yl)thiazol-2-yl)piperidin-1-yl)-2-((2-(trifluoromethyl)pyrimidin-4-yl)oxy)ethan-1-one], the inhibition of growth at 30 ppm in the test on Phytophthora infestans [1] is no less than 70%. Further, the pest or weed control at 50 ppm in the test on Phytophthora infestans [2] was no less than 70%. For the molecule `O=C(COc1ccnc(C(F)(F)F)n1)N1CCC(c2nc(C3=NOC(c4c(Cl)cccc4C(F)(F)F)C3)cs2)CC1` (centres unmarked) [Compound 18, 1-(4-(4-(5-(2-chloro-6-(trifluoromethyl)phenyl)-4,5-dihydroisoxazol-3-yl)thiazol-2-yl)piperidin-1-yl)-2-((2-(trifluoromethyl)pyrimidin-4-yl)oxy)ethan-1-one], the inhibition of growth at 30 ppm with Phytophthora infestans [1] was no less than 70%. In addition, the pest or weed control at 50 ppm in the test with Phytophthora infestans [2] was no less than 70%. Turning to `COc1nccnc1OCC(=O)N1CCC(c2nc(C3=NOC(c4c(F)cccc4Cl)C3)cs2)CC1` (centres unmarked) [Compound 25, 1-(4-(4-(5-(2-chloro-6-fluorophenyl)-4,5-dihydroisoxazol-3-yl)thiazol-2-yl)piperidin-1-yl)-2-((3-methoxypyrazin-2-yl)oxy)ethan-1-one], the inhibition of growth at 30 ppm with Phytophthora infestans [1] was no less than 70%. Besides, the pest or weed control at 50 ppm with Phytophthora infestans [2] was no less than 70%. On to `COc1nccnc1OCC(=O)N1CCC(c2nc(C3=NOC(c4c(Cl)cccc4C#N)C3)cs2)CC1` (centres unmarked) [Compound 26, 3-chloro-2-(3-(2-(1-(2-((3-methoxypyrazin-2-yl)oxy)acetyl)piperidin-4-yl)thiazol-4-yl)-4,5-dihydroisoxazol-5-yl)benzonitrile], for which, in the test with Phytophthora infestans [1], the inhibition of growth at 30 ppm is no less than 70%. Besides, the pest or weed control at 50 ppm in the test with Phytophthora infestans [2] was no less than 70%. Turning to `COc1nccnc1OCC(=O)N1CCC(c2nc(C3=NOC(c4c(F)cccc4F)C3)cs2)CC1` (centres unmarked) [Compound 27, 1-(4-(4-(5-(2,6-difluorophenyl)-4,5-dihydroisoxazol-3-yl)thiazol-2-yl)piperidin-1-yl)-2-((3-methoxypyrazin-2-yl)oxy)ethan-1-one], the inhibition of growth at 30 ppm in the test on Phytophthora infestans [1] was no less than 70%. Also, in the test with Phytophthora infestans [2], the pest or weed control at 50 ppm was no less than 70%.

Take `COc1nccnc1OCC(=O)N1CCC(c2nc(C3=NOC(c4c(F)cccc4Br)C3)cs2)CC1` (centres unmarked) [Compound 28, 1-(4-(4-(5-(2-bromo-6-fluorophenyl)-4,5-dihydroisoxazol-3-yl)thiazol-2-yl)piperidin-1-yl)-2-((3-methoxypyrazin-2-yl)oxy)ethan-1-one]: the inhibition of growth at 30 ppm with Phytophthora infestans [1] was no less than 70%. For the same molecule, in the test on Phytophthora infestans [2], the pest or weed control at 50 ppm was no less than 70%. As to `COc1nccnc1OCC(=O)N1CCC(c2nc(C3=NOC(c4c(Cl)cccc4OS(C)(=O)=O)C3)cs2)CC1` (centres unmarked) [Compound 29, 3-chloro-2-(3-(2-(1-(2-((3-methoxypyrazin-2-yl)oxy)acetyl)piperidin-4-yl)thiazol-4-yl)-4,5-dihydroisoxazol-5-yl)phenyl methanesulfonate], the inhibition of growth at 30 ppm in the test with Phytophthora infestans [1] was no less than 70%. In addition, the pest or weed control at 50 ppm with Phytophthora infestans [2] is no less than 70%. Regarding `COc1ccnc(OCC(=O)N2CCC(c3nc(C4=NOC(c5c(Cl)cc(Cl)cc5Cl)C4)cs3)CC2)n1` (centres unmarked) [Compound 35, 2-((4-methoxypyrimidin-2-yl)oxy)-1-(4-(4-(5-(2,4,6-trichlorophenyl)-4,5-dihydroisoxazol-3-yl)thiazol-2-yl)piperidin-1-yl)ethan-1-one], the pest or weed control at 50 ppm in the test on Phytophthora infestans [2] was no less than 70%. On to `CS(=O)(=O)Oc1ccc(F)c2c1COC(c1csc(C3CCN(C(=O)COc4nccnc4Cl)CC3)n1)OC2` (centres unmarked) [Compound 155, 3-(2-(1-(2-((3-chloropyrazin-2-yl)oxy)acetyl)piperidin-4-yl)thiazol-4-yl)-9-fluoro-1,5-dihydrobenzo[e][1,3]dioxepin-6-yl methanesulfonate], for which, in the test with Phytophthora infestans [1], the inhibition of growth at 30 ppm is no less than 70%.

Regarding `CS(=O)(=O)Oc1ccc(F)c2c1COC(c1csc(C3CCN(C(=O)COc4ccnc(C(F)(F)F)n4)CC3)n1)OC2` (centres unmarked) [Compound 156, 9-fluoro-3-(2-(1-(2-((2-(trifluoromethyl)pyrimidin-4-yl)oxy)acetyl)piperidin-4-yl)thiazol-4-yl)-1,5-dihydrobenzo[e][1,3]dioxepin-6-yl methanesulfonate], in the test with Phytophthora infestans [1], the inhibition of growth at 30 ppm was no less than 70%. In the case of `CS(=O)(=O)c1nccnc1OCC(=O)N1CCC(c2nc(C3=NOC(c4c(F)cccc4F)C3)cs2)CC1` (centres unmarked) [Compound 157, 1-(4-(4-(5-(2,6-difluorophenyl)-4,5-dihydroisoxazol-3-yl)thiazol-2-yl)piperidin-1-yl)-2-((3-(methylsulfonyl)pyrazin-2-yl)oxy)ethan-1-one], the inhibition of growth at 30 ppm in the test on Phytophthora infestans [1] is no less than 70%.

For `CSc1nccnc1OCC(=O)N1CCC(c2nc(C3=NOC(c4c(Cl)cccc4Br)C3)cs2)CC1` (centres unmarked) [Compound 158, 1-(4-(4-(5-(2-bromo-6-chlorophenyl)-4,5-dihydroisoxazol-3-yl)thiazol-2-yl)piperidin-1-yl)-2-((3-(methylthio)pyrazin-2-yl)oxy)ethan-1-one], in the test with Phytophthora infestans [1], the inhibition of growth at 30 ppm is no less than 70%. As to `CS(=O)(=O)c1nccnc1OCC(=O)N1CCC(c2nc(C3=NOC(c4c(F)cccc4Br)C3)cs2)CC1` (centres unmarked) [Compound 159, 1-(4-(4-(5-(2-bromo-6-fluorophenyl)-4,5-dihydroisoxazol-3-yl)thiazol-2-yl)piperidin-1-yl)-2-((3-(methylsulfonyl)pyrazin-2-yl)oxy)ethan-1-one], the inhibition of growth at 30 ppm in the test on Phytophthora infestans [1] was no less than 70%. The same measure, in the same setting: for `COc1cc(OCC(=O)N2CCC(c3nc(C4=NOC(c5c(Cl)cccc5OS(C)(=O)=O)C4)cs3)CC2)ncn1` (centres unmarked) [Compound 160, 3-chloro-2-(3-(2-(1-(2-((6-methoxypyrimidin-4-yl)oxy)acetyl)piperidin-4-yl)thiazol-4-yl)-4,5-dihydroisoxazol-5-yl)phenyl methanesulfonate] the value was no less than 70%.
